The source of these data is patent US12594276B2, “Inhibitors of human immunodeficiency virus replication” (ViiV Healthcare UK (No.5) Limited, priority 2024, dated 2026).

The subject of series [1] is recombinant NL4-3 virus (nef section replaced with Renilla luciferase gene) in MT-2 cells. The experiment in a line: HIV cell culture assay (antiviral activity, luciferase readout). Format: cell-based. To be noted: Renilla, NL43, MT-2 cells infected for 4-5 days with recombinant NL4-3 Renilla luciferase virus. The method, boiled down: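 Antiviral EC50 derived from luciferase signal using the exponential median effect equation. Infection of MT-2 cells ran 4-5 days alongside serial dilutions of compound, with virus generated by proviral clone transfection of 293T cells.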

The nature of series [2]: Compound cytotoxicity, XTT-based colorimetric assay. Format: cell-based. The following applies: human; uninfected MT2 cells, day 4, XTT; read-out: CC50. The method, boiled down:
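CC50 derived from XTT colorimetric signal measured on day 4 in MT2 cells that were not infected. All other steps followed the antiviral assay protocol.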

Each structure is given as a SMILES string. Where only a bound is given, the exact number is not on record here.

Take `Cc1cc(C2CCC(F)(F)CC2)nc2nc([C@H](Cc3cc(F)cc(F)c3)NC(=O)Cn3nc(C(F)F)c4c3C(F)(F)[C@@H]3C[C@H]43)n(-c3ccc(Cl)c4c(NS(C)(=O)=O)nn(CCN5C[C@@H](F)[C@@H](F)C5)c34)c(=O)c12` (atropisomer, axis not shown; (P)) [Example 267, N-[(1S)-1-[(3P)-3-(4-chloro-1-{2-[(3R,4S)-3,4-difluoropyrrolidin-1-yl]ethyl}-3-methanesulfonamido-1H-indazol-7-yl)-7-(4,4-difluorocyclohexyl)-5-methyl-4-oxo-3H,4H-pyrido[2,3-d]pyrimidin-2-yl]-2-(3,5-difluorophenyl)ethyl]-2-[(2S,4R)-9-(difluoromethyl)-5,5-difluoro-7,8-diazatricyclo[4.3.0.0^2,^4]nona-1(6),8-dien-7-yl]acetamide]: the EC50 in series [1] turned out to be 0.015 nM. For the same compound, in series [2], the CC50 at 4 days is more than 50 nM.

As to `Cc1cc(C2CCC(F)(F)CC2)nc2nc([C@H](Cc3cc(F)cc(F)c3)NC(=O)Cn3nc(C(F)F)c4c3C(F)(F)[C@@H]3C[C@H]43)n(-c3ccc(Cl)c4c(NS(C)(=O)=O)nn(CCN5CC(C(F)F)C5)c34)c(=O)c12` (atropisomer, axis not shown; (P)) [Example 268, N-[(1S)-1-[(3P)-3-(4-chloro-1-{2-[3-(difluoromethyl)azetidin-1-yl]ethyl}-3-methanesulfonamido-1H-indazol-7-yl)-7-(4,4-difluorocyclohexyl)-5-methyl-4-oxo-3H,4H-pyrido[2,3-d]pyrimidin-2-yl]-2-(3,5-difluorophenyl)ethyl]-2-[(2S,4R)-9-(difluoromethyl)-5,5-difluoro-7,8-diazatricyclo[4.3.0.0^2,^4]nona-1(6),8-dien-7-yl]acetamide], the EC50 in series [1] is 0.015 nM. Also, the CC50 at 4 days in series [2] is more than 50 nM.

As for `Cc1cc(C2CCC(F)(F)CC2)nc2nc([C@H](Cc3cc(F)cc(F)c3)NC(=O)Cn3nc(C(F)F)c4c3C(F)(F)[C@@H]3C[C@H]43)n(-c3ccc(Cl)c4c(NS(C)(=O)=O)nn(CCN5CCCCC5)c34)c(=O)c12` (atropisomer, axis not shown; (P)) [Example 269, N-[(1S)-1-[(3P)-3-{4-chloro-3-methanesulfonamido-1-[2-(piperidin-1-yl)ethyl]-1H-indazol-7-yl}-7-(4,4-difluorocyclohexyl)-5-methyl-4-oxo-3H,4H-pyrido[2,3-d]pyrimidin-2-yl]-2-(3,5-difluorophenyl)ethyl]-2-[(2S,4R)-9-(difluoromethyl)-5,5-difluoro-7,8-diazatricyclo[4.3.0.0^2,^4]nona-1(6),8-dien-7-yl]acetamide], in series [1], the EC50 worked out at 0.018 nM. Further, the 50% cytotoxic concentration (CC50) at 4 days in series [2] was more than 50 nM.

`Cc1cc(C2CCC(F)(F)CC2)nc2nc([C@H](Cc3cc(F)cc(F)c3)NC(=O)Cn3nc(C(F)F)c4c3C(F)(F)[C@@H]3C[C@H]43)n(-c3ccc(Cl)c4c(NS(C)(=O)=O)nn(CCN5CCC(F)CC5)c34)c(=O)c12` (atropisomer, axis not shown; (P)) [Example 270, N-[(1S)-1-[(3P)-3-{4-chloro-1-[2-(4-fluoropiperidin-1-yl)ethyl]-3-methanesulfonamido-1H-indazol-7-yl}-7-(4,4-difluorocyclohexyl)-5-methyl-4-oxo-3H,4H-pyrido[2,3-d]pyrimidin-2-yl]-2-(3,5-difluorophenyl)ethyl]-2-[(2S,4R)-9-(difluoromethyl)-5,5-difluoro-7,8-diazatricyclo[4.3.0.0^2,^4]nona-1(6),8-dien-7-yl]acetamide]: in series [1], the half-maximal effective concentration (EC50) turned out to be 0.011 nM. Besides, in series [2], the CC50 at 4 days is more than 50 nM.

For the compound `Cc1cc(C2CCC(F)(F)CC2)nc2nc([C@H](Cc3cc(F)cc(F)c3)NC(=O)Cn3nc(C(F)F)c4c3C(F)(F)[C@@H]3C[C@H]43)n(-c3ccc(Cl)c4c(NS(C)(=O)=O)nn(CCN5CCC(C)(F)CC5)c34)c(=O)c12` (atropisomer, axis not shown; (P)) [Example 271, N-[(1S)-1-[(3P)-3-{4-chloro-1-[2-(4-fluoro-4-methylpiperidin-1-yl)ethyl]-3-methanesulfonamido-1H-indazol-7-yl}-7-(4,4-difluorocyclohexyl)-5-methyl-4-oxo-3H,4H-pyrido[2,3-d]pyrimidin-2-yl]-2-(3,5-difluorophenyl)ethyl]-2-[(2S,4R)-9-(difluoromethyl)-5,5-difluoro-7,8-diazatricyclo[4.3.0.0^2,^4]nona-1(6),8-dien-7-yl]acetamide], in series [1], the concentration giving a half-maximal response (EC50) worked out at 0.015 nM. For the same compound, the CC50 at 4 days in series [2] is more than 50 nM.

For `Cc1cc(C2CCC(F)(F)CC2)nc2nc([C@H](Cc3cc(F)cc(F)c3)NC(=O)Cn3nc(C4CC4)c4c3C[C@@H]3C[C@H]43)n(-c3ccc(Cl)c4c(NS(C)(=O)=O)nn(CCN5CCCC5)c34)c(=O)c12` (atropisomer, axis not shown; (P)) [Example 273, N-[(1S)-1-[(3P)-3-{4-chloro-3-methanesulfonamido-1-[2-(pyrrolidin-1-yl)ethyl]-1H-indazol-7-yl}-7-(4,4-difluorocyclohexyl)-5-methyl-4-oxo-3H,4H-pyrido[2,3-d]pyrimidin-2-yl]-2-(3,5-difluorophenyl)ethyl]-2-[(2S,4S)-9-cyclopropyl-7,8-diazatricyclo[4.3.0.0^2,^4]nona-1(6),8-dien-7-yl]acetamide], in series [1], the EC50 came to 0.02 nM. In addition, the CC50 at 4 days in series [2] is more than 50 nM.

For `Cc1cc(C2CCC(F)(F)CC2)nc2nc([C@H](Cc3cc(F)cc(F)c3)NC(=O)Cn3nc(C4CC4)c4c3C[C@@H]3C[C@H]43)n(-c3ccc(Cl)c4c(NS(C)(=O)=O)nn(CCN5CC(C(F)F)C5)c34)c(=O)c12` (atropisomer, axis not shown; (P)) [Example 275], the EC50 in series [1] came to 0.012 nM. In addition, the CC50 at 4 days in series [2] is more than 50 nM.

Regarding `Cc1cc(C2CCC(F)(F)CC2)nc2nc([C@H](Cc3cc(F)cc(F)c3)NC(=O)Cn3nc(C4CC4)c4c3C[C@@H]3C[C@H]43)n(-c3ccc(Cl)c4c(NS(C)(=O)=O)nn(CCN5CCCCC5)c34)c(=O)c12` (atropisomer, axis not shown; (P)) [Example 276, N-[(1S)-1-[(3P)-3-{4-chloro-3-methanesulfonamido-1-[2-(piperidin-1-yl)ethyl]-1H-indazol-7-yl}-7-(4,4-difluorocyclohexyl)-5-methyl-4-oxo-3H,4H-pyrido[2,3-d]pyrimidin-2-yl]-2-(3,5-difluorophenyl)ethyl]-2-[(2S,4S)-9-cyclopropyl-7,8-diazatricyclo[4.3.0.0^2,^4]nona-1(6),8-dien-7-yl]acetamide], in series [1], the EC50 came out at 0.016 nM. Besides, the 50% cytotoxic concentration (CC50) at 4 days in series [2] was more than 50 nM.

As to `Cc1cc(C2CCC(F)(F)CC2)nc2nc([C@H](Cc3cc(F)cc(F)c3)NC(=O)Cn3nc(C4CC4)c4c3C[C@@H]3C[C@H]43)n(-c3ccc(Cl)c4c(NS(C)(=O)=O)nn(CCN5CCC(F)CC5)c34)c(=O)c12` (atropisomer, axis not shown; (P)) [Example 277, N-[(1S)-1-[(3P)-3-{4-chloro-1-[2-(4-fluoropiperidin-1-yl)ethyl]-3-methanesulfonamido-1H-indazol-7-yl}-7-(4,4-difluorocyclohexyl)-5-methyl-4-oxo-3H,4H-pyrido[2,3-d]pyrimidin-2-yl]-2-(3,5-difluorophenyl)ethyl]-2-[(2S,4S)-9-cyclopropyl-7,8-diazatricyclo[4.3.0.0^2,^4]nona-1(6),8-dien-7-yl]acetamide], the EC50 in series [1] amounted to 0.009 nM. In addition, in series [2], the half-maximal cytotoxic concentration (CC50) at 4 days is more than 50 nM.

Take `Cc1cc(C2CCC(F)(F)CC2)nc2nc([C@H](Cc3cc(F)cc(F)c3)NC(=O)Cn3nc(C4CC4)c4c3C[C@@H]3C[C@H]43)n(-c3ccc(Cl)c4c(NS(C)(=O)=O)nn(CCN5CCC(C)(F)CC5)c34)c(=O)c12` (atropisomer, axis not shown; (P)) [Example 278, N-[(1S)-1-[(3P)-3-{4-chloro-1-[2-(4-fluoro-4-methylpiperidin-1-yl)ethyl]-3-methanesulfonamido-1H-indazol-7-yl}-7-(4,4-difluorocyclohexyl)-5-methyl-4-oxo-3H,4H-pyrido[2,3-d]pyrimidin-2-yl]-2-(3,5-difluorophenyl)ethyl]-2-[(2S,4S)-9-cyclopropyl-7,8-diazatricyclo[4.3.0.0^2,^4]nona-1(6),8-dien-7-yl]acetamide]: in series [1], the EC50 is 0.005 nM. Besides, in series [2], the CC50 at 4 days was more than 50 nM.

As for `Cc1cc(C2CCC(F)(F)CC2)nc2nc([C@H](Cc3cc(F)cc(F)c3)NC(=O)Cn3nc(C4CC4)c4c3C[C@@H]3C[C@H]43)n(-c3ccc(Cl)c4c(NS(C)(=O)=O)nn(CCNC5COC5)c34)c(=O)c12` (atropisomer, axis not shown; (P)) [Example 279, N-[(1S)-1-[(3P)-3-(4-chloro-3-methanesulfonamido-1-{2-[(oxetan-3-yl)amino]ethyl}-1H-indazol-7-yl)-7-(4,4-difluorocyclohexyl)-5-methyl-4-oxo-3H,4H-pyrido[2,3-d]pyrimidin-2-yl]-2-(3,5-difluorophenyl)ethyl]-2-[(2S,4S)-9-cyclopropyl-7,8-diazatricyclo[4.3.0.0^2,^4]nona-1(6),8-dien-7-yl]acetamide], the EC50 in series [1] stood at 0.036 nM. The CC50 at 4 days in series [2] is more than 50 nM.

As to `Cc1cc(C2CCC(F)(F)CC2)nc2nc([C@H](Cc3cc(F)cc(F)c3)NC(=O)Cn3nc(C4CC4)c4c3C[C@@H]3C[C@H]43)n(-c3ccc(Cl)c4c(NS(C)(=O)=O)nn(CCN5C[C@@H](F)[C@@H](F)C5)c34)c(=O)c12` (atropisomer, axis not shown; (P)) [Example 281, N-[(1S)-1-[(3P)-3-(4-chloro-1-{2-[(3R,4S)-3,4-difluoropyrrolidin-1-yl]ethyl}-3-methanesulfonamido-1H-indazol-7-yl)-7-(4,4-difluorocyclohexyl)-5-methyl-4-oxo-3H,4H-pyrido[2,3-d]pyrimidin-2-yl]-2-(3,5-difluorophenyl)ethyl]-2-[(2S,4S)-9-cyclopropyl-7,8-diazatricyclo[4.3.0.0^2,^4]nona-1(6),8-dien-7-yl]acetamide], the EC50 in series [1] was 0.011 nM. Also, the CC50 at 4 days in series [2] is more than 50 nM.
